What all share (test): relative viability (nuclei count vs DMSO), 5 days (fraction); higher = more cells survive
Compound in experiment [1]: CC(C)(C)c1nc(-c2cccc(NS(=O)(=O)c3c(F)cccc3F)c2F)c(-c2ccnc(N)n2)s1 [Dabrafenib] + CC(C)C[C@H](NC(=O)[C@H](Cc1ccccc1)NC(=O)c1cnccn1)B(O)O [Bortezomib] (partner 0.002 µM)
The method, boiled down:
(§1)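 Lung cancer cell lines were seeded in 1536-well plates and dosed by pin tool the next day, with either a single drug or a fixed anchor-drug dose combined with five library-drug doses (not always all listed) spaced in √10 steps. Five days later, one step fixed the cells and stained their nuclei (final 0.05% Triton X-100, 1% formaldehyde, 1 ug/ml Hoechst), and nuclei were counted on 4× images. Relative viability is the nuclei count in treated wells divided by the count in vehicle wells, and each value is the median of duplicate plates.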

Compound in experiment [2]: CC(C)(C)c1nc(-c2cccc(NS(=O)(=O)c3c(F)cccc3F)c2F)c(-c2ccnc(N)n2)s1 [Dabrafenib] + C[C@@H](Oc1cc(-c2cnn(C3CCNCC3)c2)cnc1N)c1c(Cl)ccc(F)c1Cl [Crizotinib] (partner 1 µM)
The method, boiled down: as §1

Compound in experiment [3]: NC(=O)c1ccc(N(C(N)=O)c2c(F)cccc2F)nc1-c1ccc(F)cc1F [VX-702] + CC(C)C[C@H](NC(=O)[C@H](Cc1ccccc1)NC(=O)c1cnccn1)B(O)O [Bortezomib] (partner 0.002 µM)
In short, it runs like this:
as §1

Compound in experiment [4]: NC(=O)c1ccc(N(C(N)=O)c2c(F)cccc2F)nc1-c1ccc(F)cc1F [VX-702] + NC(=O)Nc1cc(-c2cccc(F)c2)sc1C(=O)N[C@H]1CCCNC1 [AZD7762] (partner 0.2 µM)
The method, boiled down:
as §1

For the cell line LOU-NH91, the relative viability in experiment [1] (first compound 0.009487 µM) turned out to be 0.457; in experiment [1] (first compound 0.03 µM) it was 0.524; in experiment [1] (first compound 0.09487 µM) it was 0.456; in experiment [1] (first compound 0.3 µM), 0.497; in experiment [2] (first compound 0.009487 µM), 0.759; in experiment [2] (first compound 0.03 µM) it was 0.717. Also, the relative viability turned out to be 0.672 in experiment [2] (first compound 0.09487 µM); 0.757 in experiment [2] (first compound 0.3 µM); 0.507 in experiment [3] (first compound 0.02 µM); 0.502 in experiment [3] (first compound 0.2 µM); 0.513 in experiment [3] (first compound 0.6325 µM); 0.532 in experiment [3] (first compound 2 µM). Moreover, the relative viability in experiment [4] (first compound 0.02 µM) came to 0.766; in experiment [4] (first compound 0.2 µM), 0.753; in experiment [4] (first compound 0.6325 µM), 0.721; in experiment [4] (first compound 2 µM), 0.695.

LU99A: the relative viability in experiment [1] (first compound 0.003 µM) was 1.16; in experiment [1] (first compound 0.009487 µM), 0.99; in experiment [1] (first compound 0.03 µM) it was 1.15; in experiment [1] (first compound 0.09487 µM), 1.1; in experiment [1] (first compound 0.3 µM) it was 0.887; in experiment [2] (first compound 0.003 µM), 0.585. The relative viability in experiment [2] (first compound 0.009487 µM) was determined as 0.525; in experiment [2] (first compound 0.03 µM), 0.466; in experiment [2] (first compound 0.09487 µM) it was 0.562; in experiment [2] (first compound 0.3 µM) it was 0.484; in experiment [3] (first compound 0.02 µM), 1.09; in experiment [3] (first compound 0.2 µM) it was 1.05. In addition, the relative viability in experiment [3] (first compound 0.6325 µM) came to 1.14; in experiment [3] (first compound 2 µM) it was 0.934; in experiment [4] (first compound 0.02 µM), 0.35; in experiment [4] (first compound 0.2 µM), 0.372; in experiment [4] (first compound 0.6325 µM), 0.368; in experiment [4] (first compound 2 µM), 0.234.

In the case of LXF-289, the relative viability in experiment [1] (first compound 0.003 µM) was 0.949; in experiment [1] (first compound 0.009487 µM) it was 1.01; in experiment [1] (first compound 0.03 µM) it was 1.18; in experiment [1] (first compound 0.09487 µM) it was 0.969; in experiment [1] (first compound 0.3 µM) it was 1.13; in experiment [2] (first compound 0.003 µM) it was 0.802. In addition, the relative viability is 0.833 in experiment [2] (first compound 0.009487 µM); 0.892 in experiment [2] (first compound 0.03 µM); 0.804 in experiment [2] (first compound 0.09487 µM); 0.883 in experiment [2] (first compound 0.3 µM); 1.03 in experiment [3] (first compound 0.02 µM); 1.03 in experiment [3] (first compound 0.2 µM). Further, the relative viability in experiment [3] (first compound 0.6325 µM) was 0.998; in experiment [3] (first compound 2 µM), 1.02; in experiment [4] (first compound 0.02 µM), 1.15; in experiment [4] (first compound 0.2 µM), 1.14; in experiment [4] (first compound 0.6325 µM), 1.15; in experiment [4] (first compound 2 µM) it was 1.16.

For the cell line NCI-H23, the relative viability amounted to 0.95 in experiment [1] (first compound 0.009487 µM); 0.861 in experiment [1] (first compound 0.03 µM); 0.643 in experiment [1] (first compound 0.09487 µM); 1.07 in experiment [1] (first compound 0.3 µM); 0.603 in experiment [2] (first compound 0.009487 µM); 0.541 in experiment [2] (first compound 0.03 µM). Further, the relative viability in experiment [2] (first compound 0.09487 µM) was found to be 0.421; in experiment [2] (first compound 0.3 µM), 0.495; in experiment [3] (first compound 0.02 µM), 1.07; in experiment [3] (first compound 0.2 µM), 0.892; in experiment [3] (first compound 0.6325 µM), 1.22; in experiment [3] (first compound 2 µM), 1.16. In addition, the relative viability in experiment [4] (first compound 0.02 µM) came out at 0.294; in experiment [4] (first compound 0.2 µM) it was 0.35; in experiment [4] (first compound 0.6325 µM), 0.305; in experiment [4] (first compound 2 µM), 0.208.

As for NCI-H322M, the relative viability in experiment [1] (first compound 0.009487 µM) amounted to 1.26; in experiment [1] (first compound 0.09487 µM) it was 1.3; in experiment [1] (first compound 0.3 µM), 1.34; in experiment [2] (first compound 0.009487 µM), 1.09; in experiment [2] (first compound 0.09487 µM), 0.876; in experiment [2] (first compound 0.3 µM), 0.941. Also, the relative viability in experiment [3] (first compound 0.02 µM) was 1.22; in experiment [3] (first compound 0.2 µM), 1.25; in experiment [3] (first compound 0.6325 µM), 1.31; in experiment [3] (first compound 2 µM), 1.18; in experiment [4] (first compound 0.02 µM), 0.544; in experiment [4] (first compound 0.2 µM), 0.558. Moreover, the relative viability in experiment [4] (first compound 0.6325 µM) turned out to be 0.537; in experiment [4] (first compound 2 µM) it was 0.499.

Regarding NCI-H441, the relative viability in experiment [1] (first compound 0.009487 µM) came to 0.453; in experiment [1] (first compound 0.03 µM), 0.393; in experiment [1] (first compound 0.09487 µM) it was 0.323; in experiment [1] (first compound 0.3 µM) it was 0.35; in experiment [2] (first compound 0.009487 µM), 0.746; in experiment [2] (first compound 0.03 µM), 0.694. Moreover, the relative viability was found to be 0.593 in experiment [2] (first compound 0.09487 µM); 0.697 in experiment [2] (first compound 0.3 µM); 0.641 in experiment [3] (first compound 0.02 µM); 0.463 in experiment [3] (first compound 0.2 µM); 0.492 in experiment [3] (first compound 0.6325 µM); 0.575 in experiment [3] (first compound 2 µM). Further, the relative viability in experiment [4] (first compound 0.02 µM) was 1.25; in experiment [4] (first compound 0.2 µM), 1.08; in experiment [4] (first compound 0.6325 µM), 1.13; in experiment [4] (first compound 2 µM), 1.02.

Take NCI-H460: the relative viability in experiment [1] (first compound 0.003 µM) is 1.28; in experiment [1] (first compound 0.009487 µM), 1.06; in experiment [1] (first compound 0.03 µM) it was 1.14; in experiment [1] (first compound 0.09487 µM), 1.05; in experiment [1] (first compound 0.3 µM), 1.08; in experiment [2] (first compound 0.003 µM) it was 0.865. In addition, the relative viability in experiment [2] (first compound 0.009487 µM) is 0.97; in experiment [2] (first compound 0.03 µM), 0.892; in experiment [2] (first compound 0.09487 µM) it was 0.842; in experiment [2] (first compound 0.3 µM), 0.899; in experiment [3] (first compound 0.02 µM) it was 1.14; in experiment [3] (first compound 0.2 µM) it was 1.15. Also, the relative viability worked out at 1.22 in experiment [3] (first compound 0.6325 µM); 1.17 in experiment [3] (first compound 2 µM); 0.732 in experiment [4] (first compound 0.02 µM); 0.585 in experiment [4] (first compound 0.2 µM); 0.721 in experiment [4] (first compound 0.6325 µM); 0.638 in experiment [4] (first compound 2 µM).

In the case of NCI-H596, the relative viability in experiment [1] (first compound 0.003 µM) is 0.6; in experiment [1] (first compound 0.009487 µM), 1; in experiment [1] (first compound 0.03 µM), 0.818; in experiment [1] (first compound 0.09487 µM), 0.895; in experiment [1] (first compound 0.3 µM), 0.986; in experiment [2] (first compound 0.003 µM) it was 1.48. For the same cell line, the relative viability turned out to be 1.06 in experiment [2] (first compound 0.009487 µM); 0.86 in experiment [2] (first compound 0.03 µM); 0.954 in experiment [2] (first compound 0.09487 µM); 0.932 in experiment [2] (first compound 0.3 µM); 1.2 in experiment [3] (first compound 0.02 µM); 0.963 in experiment [3] (first compound 0.2 µM). Also, the relative viability was 0.962 in experiment [3] (first compound 0.6325 µM); 1.25 in experiment [3] (first compound 2 µM); 1.1 in experiment [4] (first compound 0.02 µM); 1.03 in experiment [4] (first compound 0.2 µM); 1.12 in experiment [4] (first compound 0.6325 µM); 1.09 in experiment [4] (first compound 2 µM).

The values are drawn from the supplement of paper PMC10307832.
